Experiment [1] concerns the target T1, long form of human GPR120 (Homo sapiens, UniProt Q5NUL3).
T1 construct: host or cells: PathHunter CHO-K1 GPR120 β-Arrestin Cell Line
T1 sequence (Q5NUL3 1-377 isoform Q5NUL3-1): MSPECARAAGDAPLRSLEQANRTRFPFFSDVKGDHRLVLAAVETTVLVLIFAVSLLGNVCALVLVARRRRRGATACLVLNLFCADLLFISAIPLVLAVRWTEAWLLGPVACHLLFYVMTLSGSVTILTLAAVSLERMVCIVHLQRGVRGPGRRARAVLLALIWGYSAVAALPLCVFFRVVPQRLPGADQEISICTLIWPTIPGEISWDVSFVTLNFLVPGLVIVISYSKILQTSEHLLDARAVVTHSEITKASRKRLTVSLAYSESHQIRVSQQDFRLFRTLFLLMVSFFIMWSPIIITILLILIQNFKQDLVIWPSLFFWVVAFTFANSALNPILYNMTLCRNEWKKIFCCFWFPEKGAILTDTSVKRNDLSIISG
Kind of experiment: Human GPR120 DiscoveRx PathHunter beta-arrestin assay, Procedure β-arrestin A. It is filed as cell-based. The following applies: PathHunter CHO-K1 GPR120 β-Arrestin cells, 3000 cells per well; read-out: hGPR120 β-arrestin A EC50. From the text:
The binding of an agonist (medium/long chain fatty acids or small molecule agonists) to the G-protein-coupled receptor GPR120 activates phospholipase C, leading to release of intracellular Ca^+2 through the generation of inositol 1,4,5-trisphosphate (InsP3 or IP3). GPR120 activation can also trigger intracellular signaling via recruitment of Beta-Arrestin. In the present method, agonist-induced activation of the human GPR120 receptor is monitored through the use of PathHunter CHO-K1 GPR120 Beta-Arrestin Cell Line engineered by DiscoveRx, as detailed below. The cell lines are designed to co-express both the ProLink/Enzyme Donor (PK)-tagged GPCR and the Enzyme […] (EA)-tagged Beta-Arrestin fusion proteins. Upon GPR120 receptor stimulation/activation, the EA-tagged Beta-Arrestin portion is translocated to the tagged receptor, where the two enzyme fragments are brought within close proximity. Under these conditions, these fragments can interact and form an active Beta-gal enzyme complex through Enzyme Fragment Complementation (EFC). […] This in vitro assay therefore serves to assess compound agonist activity of the GPR120.
In Procedure β-arrestin A, the cell used were PathHunter CHO-K1 GPR120 β-Arrestin Cell Line, expressing the long form of human GPR120 (Genbank accession number NM_181745), with 3000 cells per well.
The selected CHO-K1 GPR120 β-Arrestin cells were cultured in Ham's F12 media supplemented with 10% fetal bovine serum (FBS), 1% Glutamine, 1×p/s, 800 μg/mL G418 and 300 μg/mL Hygromycin B (for selection). Cell stocks were maintained and grown in a sub-confluent state using standard cell culture procedures. The day before the experiment, the cells were harvested with non-enzymatic cell dissociation buffer and re-suspended in complete growth media at the desired concentration. […] The seeded plates were incubated overnight at 37° C.
On the day of the experiment, the Assay Buffer containing (a) HBSS with Ca^++ and Mg^++, (b) 20 mM HEPES, and (c) 0.1% BSA stabilizer (pH 7.4) was prepared. The growth medium was gently removed from the cell plates and 20 μL of Assay Buffer added to each well. The plate was then incubated at 37° C. for 60 min. […] Five μL of compound dilution was then added to each well and the plate incubated at 37° C. for 90 min. The detection reagents were prepared according to the manufacture's instruction. Twelve μL of the detection reagents were added to each well and the plate incubated at room temperature for 60 min.
The % activity relative to the positive control was calculated using the following equation:
The Fitting Equation was: Y=Bottom+(Top-Bottom)/(1+10^((Log EC50−X)*HillSlope)), where X is the log of the concentration and Y is the response.

For a further experiment, the target named is T2, Human GPR120 short form (Homo sapiens, UniProt Q5NUL3).
T2 construct: expressed in transfected cells
T2 sequence (Q5NUL3 1-361): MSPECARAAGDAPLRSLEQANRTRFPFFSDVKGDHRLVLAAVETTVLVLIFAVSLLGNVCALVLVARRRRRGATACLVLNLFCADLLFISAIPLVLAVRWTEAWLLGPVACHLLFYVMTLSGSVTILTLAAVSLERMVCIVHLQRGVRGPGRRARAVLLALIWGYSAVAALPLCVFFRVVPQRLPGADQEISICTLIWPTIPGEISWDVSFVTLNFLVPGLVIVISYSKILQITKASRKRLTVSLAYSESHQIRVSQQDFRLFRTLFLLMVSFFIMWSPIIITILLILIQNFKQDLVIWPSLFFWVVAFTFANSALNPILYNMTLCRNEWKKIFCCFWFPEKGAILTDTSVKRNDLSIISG
Put plainly: Human GPR120 calcium flux assay, Procedure Calcium A. It is filed as cell-based. The following applies: HEK-293 cells, FLIPR, 2500 cells/well; read-out: GPR120 Ca2+ Assay A EC50. The procedure: These cells are first loaded with the Ca^+2 sensitive dye, Fluo-4 NR. Upon stimulation, intracellular released Ca^+2 can bind to the dye and alter its fluorescence intensity. This increase in fluorescence signal, and thus the flux in intracellular [Ca^2+], is detected and quantitated by fluorescence imaging using a FLIPR reader. The effect of the agonist is measured as a function of concentration and used to calculate an EC50 based upon a response curve.
In this procedure 2500 cells/well were employed.
A Human GPR120 clone (Genbank accession number NM_001195755.1) was placed into the pcDNA3.1 mammalian expression vector carrying the neomycin resistance gene. A stable mammalian cell was generated by placing the above clone into a HEK293 background. […] Cells were split 2 times a week to keep the cells in the log-phase growth.
In preparation for the assay, HEK cells stably transfected with Human GPR120 (2.5K cells per well in 25 uL growth medium) were seeded into 384-well plates and then incubated overnight (37° C., 5% CO2). The next day, the media was changed to 20 μL assay buffer and the cell starved for 1 h at 37° C. The dye loading solution (2× dye) was prepared using 10 mL assay buffer, 100 μL of 250 mM probenecid, 1 bottle of Component A, and 20 μl of dye in DMSO. Twenty μL of the 2× dye loading buffer was then added to each well. The plates were incubated at 37° C. for 30 min, then at room temperature for an additional 15 minutes, before performing the assay on FLIPR.
The assay was performed on a FLIPR plate reader using the following parameters. Baseline was read for 10 seconds at 1 sec intervals. The program was set to transfer 10 μL of ligand from compound plate to cell plate after baseline reading. Aspiration was executed at: 10 μL/sec speed, 4.6 μL height; Dispensing was executed at: 30 μL/sec speed, 45 μL height. After compound addition, each well was read for 300 sec, with measurements collected at 1 sec intervals.
The kinetic data from the FLIPR was based upon a 5 minute window for data collection. The fluorescence of each sample well was used for individual calculations of a normalized RFU value, which was defined as maximum response minus the minimum response. […] The Fitting Equation was: Y=Bottom+(Top-Bottom)/(1+10^((Log EC50−X)*HillSlope)), where X is the log of the concentration and Y is the response.
(Calcium assays in cells follow changes in intracellular calcium, usually with a dye or a luminescent sensor.)

The structures appear in SMILES notation.

Broadly, the EC50 is the concentration giving half of the maximal effect.

Consider `OCCCc1cc(F)c(OCc2c(Cl)nsc2-c2ccc(Cl)cc2)c(F)c1` [Cpd 78, 3-(4-{[3-Chloro-5-(4-chlorophenyl)isothiazol-4-yl]methoxy}-3,5-difluorophenyl)propan-1-ol], for which the EC50 in experiment [1] is 28 nM; at Human GPR120 short form, 50 nM.
For `O=C(O)CCc1cc(F)c(OCc2sc(Cl)cc2-c2ccc(Cl)cc2)c(F)c1` [Cpd 2, 3-(4-{[5-Chloro-3-(4-chlorophenyl)thiophen-2-yl]methoxy}-3,5-difluorophenyl)propanoic acid] the same measures were 97 nM and 30 nM.
The like results for `Cc1sc(-c2ccccc2)c(COc2ccc(CCC(=O)O)c(C)c2C)c1C(F)(F)F` [Cpd 33, 3-(2,3-Dimethyl-4-{[5-methyl-2-phenyl-4-(trifluoromethyl)thiophen-3-yl]methoxy}phenyl)propanoic acid] were, in that order, 431 nM and 50 nM.

(Values after patent US10118922B2 (Janssen Pharmaceutica NV, priority 2013, dated 2018).)
